Results on 12 compounds are retold here after the SangsterLogP compilation.

Usually logP stands for a log measure of how a compound divides between an organic and an aqueous phase. High values mean higher lipophilicity, low ones lower lipophilicity.

`ClCC(Cl)CCCCCCC(Cl)CC(Cl)(Cl)Cl` (configuration not stated) came in with a logP of 6.42.

`CCCCC(Cl)C(Cl)CCC(Cl)CCl` (configuration not stated) came in with a logP of 4.93.

The compound `ClC(CCCCCC(Cl)CC(Cl)(Cl)Cl)CC(Cl)(Cl)Cl` (configuration not stated) showed a logP of 7.23.

Turning to `ClC(CCCCCCC(Cl)CC(Cl)(Cl)Cl)CC(Cl)(Cl)Cl` (configuration not stated), the logP was determined as 7.75.

In turn, `ClCC(Cl)CCC(Cl)C(Cl)CCC(Cl)CC(Cl)(Cl)Cl` (configuration not stated) came in with a logP of 5.4.

The compound `ClC(CCC(Cl)C(Cl)CCC(Cl)CC(Cl)(Cl)Cl)CC(Cl)(Cl)Cl` (configuration not stated) displayed a logP of 6.72.

The compound `CC(Cl)CCC(Cl)C(Cl)CCC(C)Cl` (configuration not stated) had a logP of 4.4.

The compound `CC(Cl)CCC(Cl)C(Cl)CCC(Cl)CCl` (configuration not stated) came in with a logP of 4.19.

`ClCC(Cl)CCCCCCC(Cl)CCl` (configuration not stated) showed a logP of 5.01.

For `ClC(CCCCC(Cl)CC(Cl)(Cl)Cl)CC(Cl)(Cl)Cl` (configuration not stated), the logP was determined as 6.71.

The compound `ClCC(Cl)CCC(Cl)C(Cl)CCC(Cl)CCl` (configuration not stated) returned a logP of 4.02.

For `ClCC(Cl)CCC(Cl)C(Cl)(Cl)CCC(Cl)CCl` (configuration not stated), the logP was found to be 4.2.
